Measurements from patent US12390423B2 (priority 2019, dated 2025).

What was measured:
C2C12 myotubes [1] = assay: High resolution respirometry in C2C12 myotubes; type: cell-based, mouse; details: 25 μM AvoB
Procedure: Cells treated with test compounds for 24 h were trypsinized, counted, and resuspended in phosphate buffer saline (PBS). High-resolution O2 consumption measurements were conducted in 2 ml of respiration medium (PBS, pH 7.5, stir speed 750 rpm) using the Oroboros Oxygraph-2k (Oroboros Instruments, Corp., Innsbruck, Austria) set to 37° C. with a gain of 2 in both chambers. Briefly, after the injection of 5 million treated INS-1 (832/13) cells or C2C12 myotubes per chamber, basal respiration was measured once steady-state respiratory flux was obtained; this represents coupled respiration fueled by available substrates from the incubation with test compounds. Uncoupled respiration was then measured following addition of the ATP synthase inhibitor oligomycin (0.25 μM). This was followed by measuring maximal respiratory rate by stepwise titration of carbonyl cyanide p-trifluoromethoxy phenyl hydrazone (FCCP; within 0.1-0.25 μM) in the presence of 1 mmol/L pyruvate. […] Data was recorded with DatLab software (Oroboros Instruments, Innsbruck, Austria), oxygen consumption at each step of the protocol was normalized to vehicle control and illustrated in histograms. For all HRR protocols, cell viability was determined after trypsinization and also after end of HRR runs via trypan blue cell staining and counting using a hemocytometer. […]

[2] = tested on: AMPK activation and mitochondrial biogenesis; assay: Immunoblotting (pAMPKα, PGC-1α) and NAO mitochondrial mass in INS-1 (832/13) cells; type: cell-based, rat; details: 25 μM AvoB, 24 h
Procedure: For all ROS studies, INS-1 (832/13) cells and C2C12 myotubes were treated with or without palmitate and FAO inhibitors for 24 h in low glucose cell culture media as described for the FAO assay. After treatment, cells were trypsinized and re-suspended in PBS containing 5 μM of the fluorescent dye MitoSOX® (Molecular Probes, Invitrogen) and allowed to incubate for 5-15 minutes in a humidified atmosphere containing 5% CO2 at 37° C. Cells were then washed in PBS, placed in a 96 well plate and fluorescence was measured by flow cytometry. ROS was quantified by normalizing the mean fluorescence values of live gated cells to vehicle control. Mitochondrial membrane potential (MMP) in INS-1 (832/13) and C2C12 myotubes was measured using the cationic fluorescent dye JC-1 (Molecular Probes). […] JC-1 fluoresces green in the cytosol where it exists as a monomer, after entering the mitochondria JC-1 monomers form J aggregates and fluoresce red, thus the red/green fluorescence ratio is used to determine MMP. […] Cells were then washed in PBS, placed in a 96 well plate and fluorescence was measured by flow cytometry. MMP was quantified by normalizing the mean fluorescence values of live gated cells to vehicle control. […] Cells were treated, washed and collected as described and incubated with 0.35 μM NAO and green fluorescence was measured using flow cytometry. […]

C2C12 myotubes [3] = assay: Glucose oxidation and 2-NBDG glucose uptake in C2C12 myotubes; type: cell-based, mouse
Procedure: C2C12 myotubes and INS-1 (832/13) cells treated as in the FAO assays described above and then incubated with D-[^14C(U)]-glucose (0.58 μC/mL) and unlabeled glucose (final glucose concentration 200 μM) for 4 h subsequent to which [^14C]—CO2 (representing complete glucose oxidation) and ASMs (representing incomplete glucose oxidation) were captured and quantified as described in the FAO method. For C2C12 myotubes, glucose oxidation and uptake was measured with and without a 30 min pre-incubation with 100 nM insulin to determine basal and insulin-mediated glucose oxidation or uptake, respectively.
To measure glucose uptake in C2C12 myotubes, a fluorescent D-glucose analog 2-(N-[7-nitrobenz-2-oxa-1,3-diazol-4-yl]amino)-2-deoxy-D-glucose (2-NBDG) was utilized. Briefly, myotubes were treated for 24 h with test compound after which they were washed twice with PBS and starved for 1 h in serum and glucose free DMEM. Following starvation, 100 nM insulin was added for 30 min after which 60 μM 2-NBDG was added to each well and allowed to incubate for 30 min. The 2-NBDG uptake reaction was then stopped by removing the incubation medium and washing the cells twice with PBS after which the cells were trypsinized and collected for flow cytometry analysis (Guava 8HT; EMD Millipore, Billerica, MA).

INS-1 (832/13) cells = assay: High resolution respirometry in INS-1 (832/13) cells; type: cell-based, rat
Procedure: Cells treated with test compounds for 24 h were trypsinized, counted, and resuspended in phosphate buffer saline (PBS). High-resolution O2 consumption measurements were conducted in 2 ml of respiration medium (PBS, pH 7.5, stir speed 750 rpm) using the Oroboros Oxygraph-2k (Oroboros Instruments, Corp., Innsbruck, Austria) set to 37° C. with a gain of 2 in both chambers. Briefly, after the injection of 5 million treated INS-1 (832/13) cells or C2C12 myotubes per chamber, basal respiration was measured once steady-state respiratory flux was obtained; this represents coupled respiration fueled by available substrates from the incubation with test compounds. Uncoupled respiration was then measured following addition of the ATP synthase inhibitor oligomycin (0.25 μM). This was followed by measuring maximal respiratory rate by stepwise titration of carbonyl cyanide p-trifluoromethoxy phenyl hydrazone (FCCP; within 0.1-0.25 μM) in the presence of 1 mmol/L pyruvate. Finally, respiration was inhibited by addition of rotenone (0.5 μM; complex I inhibitor) to obtain extra-mitochondrial residual oxygen consumption. Data was recorded with DatLab software (Oroboros Instruments, Innsbruck, Austria), oxygen consumption at each step of the protocol was normalized to vehicle control and illustrated in histograms. For all HRR protocols, cell viability was determined after trypsinization and also after end of HRR runs via trypan blue cell staining and counting using a hemocytometer. No significant differences in cell viability between control and treated cells were observed.
Additionally, to indirectly assess metabolic flexibility, cells were treated the same way as described, collected and subjected to a 15 min treatment of 10 mM D-glucose before being washed and injected into the respirometer; these experiments were done to assess if cells incubated in low glucose/high fat conditions for 24 h can easily switch to glucose utilization upon acute incubation with D-glucose.

Substance: avocatin B [AvoB]
- Glucose oxidation by HRR after 10 mM glucose (metabolic flexibility) (C2C12 myotubes [1]; 0.25 mM palmitate 24 h, then 10 mM glucose 15 min): increased
- Palmitate supported respiration (OCR, HRR) (C2C12 myotubes [1]; 0.25 mM palmitate-BSA/1 mM L-carnitine, 24 h): inhibited palmitate supported basal and maximal-uncoupled respiration
- AMPK activation (pAMPKα-Thr172) [2]: independent of AMP-activated protein kinase (AMPK) activation
- Mitochondrial biogenesis (PGC-1α protein, NAO dye) [2]: independent
- Insulin stimulated glucose uptake (2-NDBG) (C2C12 myotubes [3]; 25 μM AVO, 0.5 mM palmitate 24 h, vs palmitate only): increased glucose uptake compared to palmitate only treated cells
- Basal and insulin stimulated glucose oxidation (D-[14C(U)]-glucose to CO2) (C2C12 myotubes [3]; 25 μM AvoB, excess palmitate, 24 h): increased basal and insulin stimulated glucose oxidation
- Respiration after 10 mM glucose challenge (HRR, metabolic flexibility) (INS-1 (832/13) cells; 25 μM AvoB, 0.25 mM palmitate 24 h, then 10 mM glucose 15 min, vs palmitate-only): increased basal and maximal respiration compared to the palmitate-only control
- Palmitate supported respiration (OCR, HRR) (INS-1 (832/13) cells; 25 μM AvoB, 0.25 mM palmitate-BSA/1 mM L-carnitine, 24 h): inhibited palmitate supported basal and maximal-uncoupled respiration
- Concentration imparting FAO inhibition relative to etomoxir (INS-1 (832/13) cells; AvoB 25 μM vs etomoxir 100 μM): four-fold lower than etomoxir
